Data taken from patent publication US20170362283A1, “NISIN-BASED COMPOUNDS AND USE THEREOF IN THE TREATMENT OF BACTERIAL INFECTIONS” (UNIVERSITEIT UTRECHT HOLDING B.V., priority 2015, published 2017).
Like-named read-outs stand apart in the source and are kept apart here.

Assays:
MRSA USA300 = type: cell-based, Staphylococcus aureus; conditions: duplicate experiments
Outline: (§1)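 Broth dilution MIC following CLSI M07-A9; overnight TSB cultures diluted to 0.5×10^6 CFU in TSB and incubated with compound at 37° C for 16 hours. MIC read by visual inspection of growth.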

MRSA WKZ2 = type: cell-based, Staphylococcus aureus; conditions: duplicate experiments
Outline: as §1

[1] = Lipid II-binding in model membranes (carboxyfluorescein efflux from LUVs); type: biochemical; conditions: concentration of 5 nM; CF-loaded DOPC LUVs with 0.2% lipid II
Experimental: Large unilamellar vesicles (LUVs), composed of 1,2-dioleoyl-sn-glycero-3-phosphocholine (DOPC) spiked with 0.2% lipid II, were loaded with carboxyfluorescein (CF). The CF efflux was monitored by measuring the increase in fluorescence intensity at 515 nm, with excitation at 492 nm. In a cuvette, a solution (1 mL) of CF-loaded vesicles (20 μM final concentration) in buffer (Tris.HCl, pH 7.0 containing 100 mM NaCl) was prepared and the relevant final concentration of compounds (6), (10), and (12), and also compound (24) with R1-group (e), were added and the mixture was stirred for 1 min and the fluorescence was recorded (A0). After ca. 10 seconds, nisin (comparative compound B) was added (5 nM final concentration) and the fluorescence was followed until it stabilized, then recorded (Astable). Total membrane leakage was induced by the addition of Triton-X100 (final concentration 0.1%) and the fluorescence was recorded (Atotal). The percentile values were calculated by: […]

E. faecium E1162 = experiment: BioScreen growth assay for E. faecium E1162; type: cell-based; conditions: 5 μM
Experimental: (§2) A BioScreen C instrument (Oy Growth Curves AB, Helsinki, Finland) was used to monitor effects of the compounds (6), (10), and (12) and the effect of compound (24) with R1-group (e), or Comparative compound B (nisin) on E. faecium growth (each compound administered at a fixed concentration 5 μM). E. faecium strains were inoculated at an initial OD660 of 0.05 into 300 μl TSB containing 1% DMSO and 1% glucose or into the same medium containing the antibiotic compounds at a final concentration of 5 μM. […]
(§3) The E. faecium strains used in these experiments are E. faecium E745 (vancomycin-ampicillin resistant hospital outbreak strain), E. faecium E980 (vancomycin-ampicillin susceptible human commensal isolate), E. Faecium E1133 (vancomycin-ampicillin resistant hospital outbreak strain), and E. faecium E1162 (vancomycin-susceptible ampicillin-resistant clinical isolate). The BioScreen growth assays for each strain was determined for the compounds (6), (10), (12) and also for compound (24) with R1-group (e) as well as nisin (Comparative compound B) and compared to non-treated strains, the results being shown in the Tables 9 to 12 below.

E. faecium E1133 = experiment: BioScreen growth assay for E. faecium E1133; type: cell-based; conditions: 5 μM
Experimental: as §2, §3

erythrocytes = experiment: Hemolysis assay; conditions: human erythrocytes, 1 h, at 32 μg/mL
Experimental: Human whole blood was centrifuged at 600×g for 15 min and levels of plasma and hematocrit were marked on the tube. Plasma was removed and the erythrocytes washed 3× with PBS (centrifuging at 600×g for 15 mins). After discarding the supernatant, the packed cells were stored on ice. 100 μL of the peptides (128 μg/mL in PBS, 2% DMSO) as well as a control solution comprised of 2% DMSO in PBS were added to the top row of a polypropylene, round-bottom 96 well plate and 50 μL of PBS to the rest of the wells. The peptides and the DMSO control solutions were then diluted serially down the rows. 200 μL of the packed cells were added to PBS (10 mL) and 50 μL of this suspension was added to each well. A column with DI water containing 0.1% Triton X-100 was used as the 100% lysis control, and the column containing the serially-diluted PBS (1.0% DMSO) control served as the 0% lysis reference. The cells were incubated at 37° C. for 1 h. After incubation the plates were centrifuged (800×g, 5 min) and 25 μL of the supernatant was added to 100 μL DI water in a flat-bottom plate (polystyrene). The absorption at 414 nm was recorded to measure the amount of free hemoglobin.

E. faecium E745 = experiment: BioScreen growth assay for E. faecium E745; type: cell-based; conditions: 5 μM
Experimental: as §2, §3

M. luteus = type: cell-based; conditions: duplicate experiments
Outline: as §1

VRE 155 = type: cell-based; conditions: duplicate experiments
Outline: as §1

nisin [Compound B]
MIC values MRSA USA300 (MRSA USA300): 10 µg/mL
MIC values MRSA WKZ2 (MRSA WKZ2): 10 µg/mL
leakage of the CF dye [1]: about 50%
OD600 (E. faecium E1162; time 0 h): 0.024
OD600 (E. faecium E1162; time 4 h): 0.01533
OD600 (E. faecium E1162; time 8 h): 0.01133
OD600 (E. faecium E1162; time 12 h): 0.012
OD600 (E. faecium E1162; time 16 h): 0.01033
MIC (thirty VRE strains; VRE strain E0013, GBR, vanA): 8 µg/mL
MIC (thirty VRE strains; VRE strain E0072, NLD, vanA): 2 µg/mL
MIC (thirty VRE strains; VRE strain E0300, USA, vanA): 8 µg/mL
MIC (thirty VRE strains; VRE strain E0321, FRA, vanA): 2 µg/mL
MIC (thirty VRE strains; VRE strain E0333, ISR, vanA): 4 to 8 µg/mL
MIC (thirty VRE strains; VRE strain E0338, ITA, vanA): 8 µg/mL
MIC (thirty VRE strains; VRE strain E0341, GBR, vanA): 4 µg/mL
MIC (thirty VRE strains; VRE strain E0506, AUS, vanA): 4 to 8 µg/mL
MIC (thirty VRE strains; VRE strain E0745, NLD, vanA): 4 µg/mL
MIC (thirty VRE strains; VRE strain E1130, USA, vanA): 4 to 8 µg/mL
MIC (thirty VRE strains; VRE strain E1441, GRC, vanA): 4 µg/mL
MIC (thirty VRE strains; VRE strain E1679, BRA, vanA): 4 µg/mL
MIC (thirty VRE strains; VRE strain E1763, BEL, vanA): 8 µg/mL
MIC (thirty VRE strains; VRE strain E2297, USA, vanA): 4 µg/mL
MIC (thirty VRE strains; VRE strain E2359, SGP, vanB): 8 µg/mL
MIC (thirty VRE strains; VRE strain E2365, HUN, vanB): 2 to 4 µg/mL
MIC (thirty VRE strains; VRE strain E2373, SRB, vanA): 4 µg/mL
MIC (thirty VRE strains; VRE strain E6016, LVA, vanA): 4 µg/mL
MIC (thirty VRE strains; VRE strain E7312, NLD, vanA): 4 µg/mL
MIC (thirty VRE strains; VRE strain E7314, NLD, vanB): 4 to 8 µg/mL
MIC (thirty VRE strains; VRE strain E7319, NLD, vanA): 4 µg/mL
MIC (thirty VRE strains; VRE strain E7329, NLD, vanA): 4 µg/mL
MIC (thirty VRE strains; VRE strain E7401, NLD, vanB): 8 µg/mL
MIC (thirty VRE strains; VRE strain E7403, NLD, vanB): 4 µg/mL
MIC (thirty VRE strains; VRE strain E7413, NLD, vanA): 4 µg/mL
MIC (thirty VRE strains; VRE strain E7424, NLD, vanB): 4 µg/mL
MIC (thirty VRE strains; VRE strain E7464, NLD, vanB): 4 µg/mL
MIC (thirty VRE strains; VRE strain E8218, NLD, vanB): 4 µg/mL
MIC (thirty VRE strains; VRE strain E8235, NLD, vanB): 4 µg/mL
MIC (thirty VRE strains; VRE strain E8237, NLD, vanA): 8 µg/mL
OD600 (E. faecium E1133; time 0 h): 0.016
OD600 (E. faecium E1133; time 4 h): 0.009667
OD600 (E. faecium E1133; time 8 h): 0.009333
OD600 (E. faecium E1133; time 12 h): 0.009333
OD600 (E. faecium E1133; time 16 h): 0.008667
hemolysis (erythrocytes): negligible hemolysis
OD600 (E. faecium E745; time 0 h): 0.01733
OD600 (E. faecium E745; time 4 h): 0.01033
OD600 (E. faecium E745; time 8 h): 0.01033
OD600 (E. faecium E745; time 12 h): 0.01067
OD600 (E. faecium E745; time 16 h): 0.008667
MIC values M. luteus (M. luteus): 0.02 to 0.03 µg/mL
MIC values VRE 155 (VRE 155): 5 µg/mL
